Experimental data reported in ChEMBL document CHEMBL3525932, “Comparison of metabolism of sesamin and episesamin by drug-metabolizing enzymes in human liver” (Drug Metab Dispos, 2012).

Tests used:
Liver microsome = experiment: Drug level in human liver microsomes treated with sesamin after 30 mins by HPLC analysis in presence of NADPH; type: ADME; settings: 0.5 h
[1] = Drug metabolism in human liver microsomes assessed as CYP450-mediated catecholization per mg of protein after 10 to 30 mins by HPLC analysis in presence of NADPH; type: ADME
CYP450 [2] = experiment: Drug metabolism in Sprague-Dawley rat liver microsomes assessed as CYP450-mediated catecholization after 10 to 30 mins by HPLC analysis in presence of NADPH; type: ADME
CYP450 [3] = experiment: Drug metabolism in human liver microsomes assessed as CYP450-mediated catecholization after 10 to 30 mins by HPLC analysis in presence of NADPH; type: ADME
Cytochrome P450 2C19 [4] = biological target: T1, Cytochrome P450 2C19 (Homo sapiens, UniProt P33261); experiment: Activity of recombinant human CYP2C19 expressed in Saccharomyces cerevisiae AH22 cells assessed as enzyme-mediated compound formation treated with sesamin at 2 to 20 uM after 15 mins by HPLC analysis in presence of NADPH; type: ADME, cell-based; settings: ah22, 0.25 h
T1 sequence (P33261 whole entry): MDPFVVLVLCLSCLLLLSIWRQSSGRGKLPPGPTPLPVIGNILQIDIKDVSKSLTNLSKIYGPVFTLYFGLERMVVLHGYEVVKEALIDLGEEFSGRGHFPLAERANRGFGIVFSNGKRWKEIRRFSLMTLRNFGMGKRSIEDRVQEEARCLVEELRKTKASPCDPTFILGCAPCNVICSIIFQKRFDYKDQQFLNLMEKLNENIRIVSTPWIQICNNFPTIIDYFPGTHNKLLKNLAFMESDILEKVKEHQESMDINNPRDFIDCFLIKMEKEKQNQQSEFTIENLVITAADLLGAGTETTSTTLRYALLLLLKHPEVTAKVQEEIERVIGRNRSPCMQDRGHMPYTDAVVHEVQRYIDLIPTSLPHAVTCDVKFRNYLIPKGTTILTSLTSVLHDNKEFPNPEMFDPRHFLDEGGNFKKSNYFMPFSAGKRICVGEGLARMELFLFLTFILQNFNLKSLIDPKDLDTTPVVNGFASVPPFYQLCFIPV

[5] = Drug metabolism in Sprague-Dawley rat liver microsomes assessed as CYP450-mediated catecholization per mg of protein after 10 to 30 mins by HPLC analysis in presence of NADPH; type: ADME
Cytochrome P450 2C9 = Cytochrome P450 2C9 (Homo sapiens, UniProt P11712); experiment: Activity of recombinant human CYP2C9 expressed in Saccharomyces cerevisiae AH22 cells assessed as enzyme-mediated sesamin dicatechol formation after 15 mins by HPLC analysis in presence of NADPH; type: ADME, cell-based; settings: ah22, 0.25 h
Cytochrome P450 2C9, sequence (P11712 whole entry): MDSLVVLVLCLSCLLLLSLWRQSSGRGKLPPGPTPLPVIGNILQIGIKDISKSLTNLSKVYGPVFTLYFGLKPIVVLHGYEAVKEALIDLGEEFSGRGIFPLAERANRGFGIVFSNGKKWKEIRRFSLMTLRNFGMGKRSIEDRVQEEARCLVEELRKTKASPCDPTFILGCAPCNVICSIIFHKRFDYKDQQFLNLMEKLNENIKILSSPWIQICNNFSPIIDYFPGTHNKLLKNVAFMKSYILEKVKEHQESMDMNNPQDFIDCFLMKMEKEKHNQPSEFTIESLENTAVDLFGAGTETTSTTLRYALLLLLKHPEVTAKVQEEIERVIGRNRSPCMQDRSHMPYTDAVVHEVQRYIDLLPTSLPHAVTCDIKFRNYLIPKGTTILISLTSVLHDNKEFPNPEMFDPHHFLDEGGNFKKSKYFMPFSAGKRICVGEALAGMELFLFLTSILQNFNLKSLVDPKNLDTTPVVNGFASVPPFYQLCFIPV

[6] = Drug metabolism in human liver microsomes assessed as UGT-mediated glucuronidation per mg of protein after 10 to 30 mins by HPLC analysis in presence of UDP-GlcUA; type: ADME
UGT [7] = experiment: Drug metabolism in human liver microsomes assessed as UGT-mediated glucuronidation after 10 to 30 mins by HPLC analysis in presence of UDP-GlcUA; type: ADME
UGT [8] = experiment: Drug metabolism in Sprague-Dawley rat liver microsomes assessed as UGT-mediated glucuronidation after 10 to 30 mins by HPLC analysis in presence of UDP-GlcUA; type: ADME
[9] = Drug metabolism in Sprague-Dawley rat liver microsomes assessed as UGT-mediated glucuronidation per mg of protein after 10 to 30 mins by HPLC analysis in presence of UDP-GlcUA; type: ADME
Cytochrome P450 2C19 [10] = biological target: T1, Cytochrome P450 2C19; experiment: Activity of recombinant human CYP2C19 expressed in Saccharomyces cerevisiae AH22 cells assessed as enzyme-mediated sesamin dicatechol formation after 15 mins by HPLC analysis in presence of NADPH; type: ADME, cell-based; settings: ah22, 0.25 h

Question: Which Drug metabolism (Liver microsome) does the source give for `Oc1ccc([C@H]2OC[C@H]3[C@@H]2CO[C@@H]3c2ccc3c(c2)OCO3)cc1O` here?
Answer: metabolite_detected

Question: What about the Vmax [1] of the same compound?
Answer: 0.44 nmol/min/mg

Question: What about the Km (CYP450 [2]) of the same compound?
Answer: 5.3 µM

Question: What about the Km (CYP450 [3]) of the same compound?
Answer: 18.8 µM

Question: And the Drug metabolism (Cytochrome P450 2C19 [4])?
Answer: metabolite_detected

Question: What about the Vmax [5] of the same compound?
Answer: 3.7 nmol/min/mg

Question: What about the Drug metabolism (Cytochrome P450 2C9) of the same compound?
Answer: 0.83 nmol/min

Question: What about the Vmax [6] of the same compound?
Answer: 6 nmol/min/mg

Question: What about the Km (UGT [7]) of the same compound?
Answer: 18 µM

Question: What about the Km (UGT [8]) of the same compound?
Answer: 20.3 µM

Question: And the Vmax [9]?
Answer: 1.1 nmol/min/mg

Question: And the Drug metabolism (Cytochrome P450 2C19 [10])?
Answer: 10.4 nmol/min
